How the values were obtained:
rat NaP2b (SLC34A2) [1] = biological target: T1, rat NaP2b (SLC34A2) (Rattus norvegicus, UniProt Q9JJ09); experiment: NaP2b-mediated Pi transport (33P uptake) in transfected HEK293 cells, rat NaP2b; assay type: cell-based
T1 construct: host or cells: HEK293
T1 sequence (Q9JJ09 1-695): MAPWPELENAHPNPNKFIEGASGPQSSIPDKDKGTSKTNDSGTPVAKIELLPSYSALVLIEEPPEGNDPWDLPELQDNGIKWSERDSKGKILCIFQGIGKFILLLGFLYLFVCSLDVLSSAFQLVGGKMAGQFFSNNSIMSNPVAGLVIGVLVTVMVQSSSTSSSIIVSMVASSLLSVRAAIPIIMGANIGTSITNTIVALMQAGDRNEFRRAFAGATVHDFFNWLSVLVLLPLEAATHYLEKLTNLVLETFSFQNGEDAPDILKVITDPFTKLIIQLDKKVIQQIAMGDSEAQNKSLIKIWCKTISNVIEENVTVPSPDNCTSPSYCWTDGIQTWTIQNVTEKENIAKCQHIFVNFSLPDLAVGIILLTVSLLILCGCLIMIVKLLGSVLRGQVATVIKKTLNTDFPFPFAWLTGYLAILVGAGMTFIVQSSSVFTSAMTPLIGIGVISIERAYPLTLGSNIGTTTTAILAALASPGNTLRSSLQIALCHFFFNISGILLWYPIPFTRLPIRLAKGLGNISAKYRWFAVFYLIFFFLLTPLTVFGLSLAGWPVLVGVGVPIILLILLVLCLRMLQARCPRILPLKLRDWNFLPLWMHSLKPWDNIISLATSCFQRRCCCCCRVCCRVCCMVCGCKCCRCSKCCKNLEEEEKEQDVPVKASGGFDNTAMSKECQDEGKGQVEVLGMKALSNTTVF
Description: (§1) HEK293 cells were obtained from the American Type Culture collection and propagated per their instructions. Expression clones for rat and human NaP2b (SLC34A2) were obtained from Open Biosystems (Catalog numbers MRN1768-9510282, and MHS1010-99823026, respectively). The sequence of the human protein was mutated to insert a threonine after residue 37, and to introduce a N39D mutation.
(§2) The rate of phosphate (Pi) uptake into HEK293 cells was measured using a modification of the method described by Mohrmann et al. (Mohrmann, I., Mohrmann, M., Biber, J., and Murer, H. (1986) Am. J. Phys. 250(3 Pt 1):G323-30.) Transfected HEK293 cells were treated with a pharmacological agent to minimize endogenous PiT-mediated phosphate transport activity, such that the only remaining sodium-dependent phosphate transport activity is that which was bestowed by introduction of the NaP2b genes.
(§3) Cells were seeded into 96-well plates at 25,000 cells/well and cultured overnight. Lipofectamine 2000 (Invitrogen) was used to introduce the NaP2b cDNA, and the cells were allowed to approach confluence during a second overnight incubation. […] Cells were then overlayed with either choline uptake buffer or sodium uptake buffer (14 mM Tris, 137 mM sodium chloride, 5.4 mM KCl, 2.8 mM CaCl2, 1.2 mM MgSO4, 100 uM KH2PO4, PiT-silencing agent, 1 mg/mL Bovine Serum Albumin, pH 7.4) containing 6-9 uCi/mL ^33P orthophosphoric acid (Perkin Elmer) and test compound. Each compound was tested at twelve concentrations ranging from 0.1 nM to 30 uM. Assays were run in duplicate.
(§4) After incubation for 3-30 minutes at room temperature, assay mixtures were removed, and the cells were washed twice with ice cold stop solution (137 mM sodium chloride, 14 mM Tris, pH 7.4). Cells were lysed by addition of 20 μL 0.1% Tween 80 followed by 100 μL scintillation fluid, and counted using a TopCount (Perkin Elmer).
(§5) pIC50 (the negative log of the IC50) values of the test compounds were calculated using GraphPad Prism.
HEK293 cells were obtained from the American Type Culture collection and propagated per their instructions. Expression clones for rat and mouse NaP2b (SLC34A2) cDNAs were obtained from Open Biosystems (Catalog numbers MRN1768-9510282 and MMM1013-98478398 respectively).
The rate of phosphate uptake into HEK293 cells was measured using a modification of the method described by Mohrmann et al. (Mohrmann, I., Mohrmann, M., Biber, J., and Murer, H. (1986) Am. J. Phys. 250(3 Pt 1):G323-30.) Transfected HEK293 cells were treated with a pharmacological agent to minimize endogenous PiT-mediated phosphate transport activity, such that the only remaining sodium-dependent phosphate transport activity is that which was bestowed by introduction of the NaP2b genes.
as §3, with “agent, 0.1% wt/v bovine serum albumin,” for “agent, 1 mg/mL Bovine Serum Albumin,”, “Each compounds” for “Each compound”
After incubation for 3-30 minutes at room temperature, assay mixtures were removed, and the cells were washed twice with ice cold stop solution (137 mM sodium chloride, 14 mM Tris, pH 7.4).

[2] = Stability of compounds in simulated gastric and intestinal fluid; assay type: in vitro ADME; details: Structure (V) examples, Table 3, 3 hr
Description: Test compounds were incubated at 1-20 μM in simulated gastric fluid (SGF; standard USP solution with 3 mg/mL pepsin) or simulated intestinal fluid (SIF; standard USP solution with 3 mg/mL pancreatin) for 3 hr or 6 hr. HPLC-UV or HPLC-MS were used to determine test compound levels using peak area %. Results (Table 5) were reported as the percentage of test compound remaining after incubation in a given condition relative to test compound present at t=0 in the same condition.
Test compounds were incubated at 1-20 μM in simulated gastric fluid (SGF; standard USP solution with 3 mg/mL pepsin) or simulated intestinal fluid (SIF; standard USP solution with 3 mg/mL pancreatin) for 3 hr. HPLC-UV or HPLC-MS were used to determine test compound levels using peak area %. Results (Table 3) were reported as the percentage of test compound remaining after incubation in a given condition relative to test compound present at t=0 in the same condition.

rat NaP2b (SLC34A2) [3] = biological target: T1, rat NaP2b (SLC34A2); experiment: Inhibition of NaP2b-mediated Pi (33P) uptake in transfected HEK293 cells, rat NaP2b; assay type: cell-based; details: 33P Pi uptake, 0.1 mM phosphate, value given as pIC50 range
Outline: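 The cells transiently expressed NaP2b after Lipofectamine transfection. Each compound was run in duplicate over twelve concentrations, 0.1 nM–30 uM.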

[4] = system: Uptake of Phosphorus from the Intestine; experiment: In vivo bolus phosphorus challenge; design: species or system rat; details: Sprague-Dawley rats on low-phosphorus diet; oral Drug Dose 30, 15 min before phosphate bolus; serum 30 min post bolus
Description: By pretreating animals with a low phosphorus diet followed by the subsequent dosing of a phosphorus bolus, serum phosphorus levels were monitored after 30 minutes as a surrogate for intestinal phosphorus absorption. […] The in vivo bolus phosphorus challenge model used here mimics this model in rats.
Male, 7-week-old Sprague-Dawley rats (Charles-River laboratories international, Hollister, Calif.) were allowed to acclimatize for a minimum of 3 days before switching to a synthetic low-phosphorus diet (TD.85010, Harlan Teklad, Madison, Wis.) which contains 0.1% phosphorus and 0.6% calcium. At day 5, testing compounds or vehicle alone (as indicated) were orally administered at the indicated dose in a volume of 5 ml/kg, followed by a bolus gavage of monobasic sodium phosphate (1 mmol in 1 ml) 15 min after compound dosing. Serum was collected via retroorbital bleeding 30 min post phosphate bolus and phosphate levels were determined utilizing an ACE ALERA blood chemistry analyzer (Alfa Wassermann Diagnostic Technologies, West Caldwell, N.J.).
The extent of inhibition by test compounds on the elevation of serum phosphate levels in response to the bolus of phosphorus is shown in Table 12 (data are expressed as % Inhibition, with 6-10 animals per data point). The differences between groups were evaluated by one-way analysis of variance with Dunnett's post hoc tests.

[5] = Determination of compound Cmax and AUC after oral gavage (plasma LC-MS/MS); assay type: in vivo, Sprague-Dawley rats; details: Sprague-Dawley, rat, plasma, po, Structure (II) examples, Table 6, actual oral dose 7.6-11 mg/kg
Outline: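 Plasma exposure measured by LC-MS/MS after acetonitrile precipitation with internal standard, quantified against a standard curve made in plasma. Compound given orally by gavage to Sprague-Dawley rats at nominal 2.5 or 10 mg/kg, with K2EDTA plasma sampled at 0.5, 1, 2 and 4 h.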

human NaP2b (SLC34A2) = biological target: T2, human NaP2b (SLC34A2) (Homo sapiens, UniProt O95436); experiment: NaP2b-mediated Pi transport (33P uptake) in transfected HEK293 cells, human NaP2b; assay type: cell-based; details: Structure (II) examples, Table 2; HEK293, 0.1 mM phosphate; read-out: pIC50 range for human Nap2b (converted)
T2 construct: host or cells: HEK293
T2 sequence (O95436 1-690): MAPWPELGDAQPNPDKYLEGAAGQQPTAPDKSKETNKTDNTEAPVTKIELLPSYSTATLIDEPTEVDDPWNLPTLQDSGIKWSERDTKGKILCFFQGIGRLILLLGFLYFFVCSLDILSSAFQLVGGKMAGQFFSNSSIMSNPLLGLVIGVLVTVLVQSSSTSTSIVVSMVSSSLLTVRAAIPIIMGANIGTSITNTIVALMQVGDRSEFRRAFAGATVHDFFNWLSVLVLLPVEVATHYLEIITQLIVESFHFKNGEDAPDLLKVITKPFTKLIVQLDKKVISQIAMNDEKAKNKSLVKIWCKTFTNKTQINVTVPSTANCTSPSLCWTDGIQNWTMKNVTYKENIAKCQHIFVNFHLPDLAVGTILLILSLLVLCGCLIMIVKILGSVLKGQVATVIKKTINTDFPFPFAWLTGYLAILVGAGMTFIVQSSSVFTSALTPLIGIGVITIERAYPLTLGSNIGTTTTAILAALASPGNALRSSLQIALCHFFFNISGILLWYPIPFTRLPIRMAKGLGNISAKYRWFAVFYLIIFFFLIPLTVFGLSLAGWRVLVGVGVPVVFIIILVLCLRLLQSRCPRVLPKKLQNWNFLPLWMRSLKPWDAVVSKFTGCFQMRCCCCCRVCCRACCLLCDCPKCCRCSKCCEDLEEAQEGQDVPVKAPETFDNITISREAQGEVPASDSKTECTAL
Description: as §1, §2
Cells were seeded into 96-well plates at 25,000 cells/well and cultured overnight. […]
as §4, §5

NaPi2b [6] = biological target: T3, NaPi2b (Rattus norvegicus, UniProt Q9JJ09); experiment: Competition with phosphate: Pi transport assay repeated at 2.1 vs 0.1 mM phosphate; assay type: cell-based; details: potency at 2.1 vs 0.1 mM phosphate
T3 construct: host or cells: HEK293
T3 sequence (Q9JJ09 1-695): T1 sequence (Q9JJ09 1-695)
Description: (§6) To ascertain if an inhibitor was competitive for binding with phosphate, the procedure was repeated, but raising the concentration of the substrate in the assay mixture from 0.1 to 2.1 mM phosphate.

NaPi2b [7] = experiment: Competition with phosphate: Pi uptake assay repeated at 2.1 vs 0.1 mM phosphate; assay type: cell-based; details: potency at 2.1 vs 0.1 mM phosphate
Excerpt: For example, a phosphate uptake assay can be performed and the IC50 values for a compound at different phosphate concentrations can be determined (e.g., “Enzyme kinetics”, I. Segel, 1975, John-Wiley & Sons, p. 123). IC50 values for non-competitive inhibitors will remain the same or similar with respect to the phosphate concentration, whereas IC50 values for competitive inhibitors will increase (i.e lose potency) as phosphate concentration increases.
as §6

O=C(O)CNC(=O)CCSCc1cccc(C(=O)Nc2ccc(N3CCCCC3)cc2C(=O)N/N=C/c2ccc(Cl)c(C(F)(F)F)c2)c1 [Ex. 50, (E)-2-(3-(3-(2-(2-(4-chloro-3-(trifluoromethyl)benzylidene)hydrazinecarbonyl)-4-(piperidin-1-yl)phenylcarbamoyl)benzylthio)propanamido)acetic acid]
IC50 (rat NaP2b (SLC34A2) [1]; Structure (V) examples, Table 2, rat NaP2b, HEK293, read-out: pIC50 Range (converted)): 100 to 794 nM
% remaining, SGF ([2]; simulated gastric fluid): 7%
% remaining, SIF ([2]; simulated intestinal fluid): 90%

O=C(O)CCSCc1cccc(C(=O)Nc2ccc(N3CCCCC3)cc2-c2cc(C(=O)NCc3cc(C(F)(F)F)cc(C(F)(F)F)c3)ccn2)c1 [Example 1.32]
IC50 (rat NaP2b (SLC34A2) [3]): 1000 to 7940 nM
% Inhibition of Serum P elevation [4]: 20-30%

O=C(NCCN1CCOCC1)c1cccc(C(=O)Nc2ccc(N3CCCCC3)cc2-c2cc(C(=O)NCc3cccc(C(F)(F)F)c3)ccn2)c1 [Example 4.4, N1-(2-Morpholinoethyl)-N3-(4-(piperidin-1-yl)-2-(4-((3-(trifluoromethyl)benzyl)carbamoyl)pyridin-2-yl)phenyl)isophthalamide]
IC50 (rat NaP2b (SLC34A2) [3]): 10000 to 31600 nM
% Inhibition of Serum P elevation [4]: 40-50%

O=C(O)CCOCCOCCOCCNC(=O)c1cccc(C(=O)Nc2ccc(Cl)cc2C(=O)Nc2ccn(-c3cccc(C(F)(F)F)c3)n2)c1 [Example 25]
Cmax [5]: 3 ng/mL
IC50 (human NaP2b (SLC34A2)): < 1000 nM
IC50 (rat NaP2b (SLC34A2) [1]; Structure (II) examples, Table 2, HEK293, 0.1 mM phosphate, read-out: pIC50 range for rat Nap2b (converted)): < 1000 nM

O=C(O)P(=O)(O)O [PFA]
pIC50 range for rat Nap2b (rat NaP2b (SLC34A2) [3]): 2-3
pIC50 range for rat Nap2b (rat NaP2b (SLC34A2) [1]; Structure (II) examples, Table 2, HEK293, 0.1 mM phosphate): 2-3
pIC50 range for rat Nap2b (rat NaP2b (SLC34A2) [1]; Structure (III) examples, Table 2, HEK293, 0.1 mM phosphate): 2-3
pIC50 range for rat Nap2b (rat NaP2b (SLC34A2) [1]; Structure (IV) examples, Table 1, HEK293, 0.1 mM phosphate): 2-3
Competitive with respect to Pi? (NaPi2b [6]; Structure (II) examples, Table 2): Yes
Competitive with respect to Pi? (NaPi2b [6]; Structure (III) examples, Table 2): Yes
Competitive with respect to Pi? (NaPi2b [6]; Structure (IV) examples, Table 1): Yes
Competitive with respect to Pi? (NaPi2b [7]): Yes
